system: Jurkat; assay: MTS proliferation assay, Jurkat; type: cell-based, human; details: 72 h incubation, read-out: MTS proliferation assay IC 50 Jurkat
Method in brief: (§1)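 Cells were seeded 24 h before treatment and exposed to compound at 10, 3, 1 and 0.3 μM final for 72 h at 37 °C, 7.5% CO2 in RPMI-1640 with 5% or 10% FCS. Viability was read by MTS reagent (3 h) as absorbance at 492 nm.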

SMILES	IC50 [nM]
N#CCCNc1nonc1-c1nc2ccccc2n1CC(=O)c1ccc(N)cc1.O=C(O)C(=O)O [Example 61]	10 to 100

same assay, conditions: Homo sapiens, 72 h incubation, read-out: MTS proliferation assay IC 50 Jurkat

SMILES	IC50 [nM]
N#CCCNc1nonc1-c1nc2ccccc2n1CC(=O)c1ccc(Cl)cc1 [Example 6, 4-[1-(4-Chlorophenacyl)-1H-benzimidazol-2-yl]-furazan-3-yl-N-(2-cyanoethyl)-amine]	< 10

system: Jily; assay: MTS proliferation assay, Jily; type: cell-based; details: 72 h incubation, read-out: MTS proliferation assay IC 50 Jily
Method in brief: (§2)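 Cells in RPMI-1640 with 5% or 10% FCS, 2-mercaptoethanol and glutamine were seeded 24 h before treatment with compound at final 10, 3, 1 and 0.3 μM. After 72 h at 37° C and 7.5% CO2, MTS reagent was added for 3 h and absorbance read at 492 nm.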

SMILES	IC50 [nM]
N#CCCNc1nonc1-c1nc2ccccc2n1CC(=O)c1ccc(N)cc1.O=C(O)C(=O)O [Example 61]	10 to 100
N#CCCNc1nonc1-c1nc2ccccc2n1CC(=O)c1ccc(Cl)cc1 [Example 6, 4-[1-(4-Chlorophenacyl)-1H-benzimidazol-2-yl]-furazan-3-yl-N-(2-cyanoethyl)-amine]	10 to 100

system: HT1080; assay: MTS proliferation assay, HT1080; type: cell-based, human; details: HT1080, 72 h incubation; read-out: MTS proliferation assay IC 50 HT1080
Method in brief: as §1

SMILES	IC50 [nM]
N#CCCNc1nonc1-c1nc2ccccc2n1CC(=O)c1ccc(N)cc1.O=C(O)C(=O)O [Example 61]	10 to 100

same assay, conditions: Homo sapiens, HT-1080; HT1080, 72 h incubation; read-out: MTS proliferation assay IC 50 HT1080

SMILES	IC50 [nM]
N#CCCNc1nonc1-c1nc2ccccc2n1CC(=O)c1ccc(Cl)cc1 [Example 6, 4-[1-(4-Chlorophenacyl)-1H-benzimidazol-2-yl]-furazan-3-yl-N-(2-cyanoethyl)-amine]	10 to 100

system: HeLa; assay: MTS proliferation assay, HeLa; type: cell-based, human; details: 72 h incubation, read-out: MTS proliferation assay IC 50 HeLa
Method in brief: as §1

SMILES	IC50 [nM]
N#CCCNc1nonc1-c1nc2ccccc2n1CC(=O)c1ccc(N)cc1.O=C(O)C(=O)O [Example 61]	10 to 100

same assay, conditions: Homo sapiens, 72 h incubation, read-out: MTS proliferation assay IC 50 HeLa

SMILES	IC50 [nM]
N#CCCNc1nonc1-c1nc2ccccc2n1CC(=O)c1ccc(Cl)cc1 [Example 6, 4-[1-(4-Chlorophenacyl)-1H-benzimidazol-2-yl]-furazan-3-yl-N-(2-cyanoethyl)-amine]	10 to 100

system: MRC5; assay: MTS proliferation assay, MRC5; type: cell-based; details: Homo sapiens; MRC5, 72 h incubation; read-out: MTS proliferation assay IC 50 MRC5
Method in brief: as §2

SMILES	IC50 [nM]
N#CCCNc1nonc1-c1nc2ccccc2n1CC(=O)c1ccc(Cl)cc1 [Example 6, 4-[1-(4-Chlorophenacyl)-1H-benzimidazol-2-yl]-furazan-3-yl-N-(2-cyanoethyl)-amine]	100 to 1000

same assay, conditions: MRC5, 72 h incubation; read-out: MTS proliferation assay IC 50 MRC5

SMILES	IC50 [nM]
N#CCCNc1nonc1-c1nc2ccccc2n1CC(=O)c1ccc(N)cc1.O=C(O)C(=O)O [Example 61]	10 to 100

system: adherent cells or suspension cells; assay: Hoechst 33342 nuclear staining (fraction of apoptotic nuclei); type: cell-based; parameters: key: 0 relating to no activity; 1 relating to weak activity comprising less than 70% of the cells; score 2 relating to strong activity comprising more than 70% of the cells; details: H460, conc 0.01 μm

SMILES	Hoechst 33342 nuclear staining score
N#CCCNc1nonc1-c1nc2ccccc2n1CC(=O)c1ccc(N)cc1.O=C(O)C(=O)O [Example 61]	0
N#CCCNc1nonc1-c1nc2ccccc2n1CC(=O)c1ccc(Cl)cc1 [Example 6, 4-[1-(4-Chlorophenacyl)-1H-benzimidazol-2-yl]-furazan-3-yl-N-(2-cyanoethyl)-amine]	0

same assay, conditions: H460, conc 0.1 μm

SMILES	Hoechst 33342 nuclear staining score
N#CCCNc1nonc1-c1nc2ccccc2n1CC(=O)c1ccc(N)cc1.O=C(O)C(=O)O [Example 61]	2 (score 2 relating to strong activity comprising more than 70% of the cells)
N#CCCNc1nonc1-c1nc2ccccc2n1CC(=O)c1ccc(Cl)cc1 [Example 6, 4-[1-(4-Chlorophenacyl)-1H-benzimidazol-2-yl]-furazan-3-yl-N-(2-cyanoethyl)-amine]	2 (score 2 relating to strong activity comprising more than 70% of the cells)

same assay, conditions: H460, conc 1 μm

SMILES	Hoechst 33342 nuclear staining score
N#CCCNc1nonc1-c1nc2ccccc2n1CC(=O)c1ccc(N)cc1.O=C(O)C(=O)O [Example 61]	2 (score 2 relating to strong activity comprising more than 70% of the cells)
N#CCCNc1nonc1-c1nc2ccccc2n1CC(=O)c1ccc(Cl)cc1 [Example 6, 4-[1-(4-Chlorophenacyl)-1H-benzimidazol-2-yl]-furazan-3-yl-N-(2-cyanoethyl)-amine]	2 (score 2 relating to strong activity comprising more than 70% of the cells)

same assay, conditions: HeLa, conc 0.01 μm

SMILES	Hoechst 33342 nuclear staining score
N#CCCNc1nonc1-c1nc2ccccc2n1CC(=O)c1ccc(N)cc1.O=C(O)C(=O)O [Example 61]	0
N#CCCNc1nonc1-c1nc2ccccc2n1CC(=O)c1ccc(Cl)cc1 [Example 6, 4-[1-(4-Chlorophenacyl)-1H-benzimidazol-2-yl]-furazan-3-yl-N-(2-cyanoethyl)-amine]	0

same assay, conditions: HeLa, conc 0.1 μm

SMILES	Hoechst 33342 nuclear staining score
N#CCCNc1nonc1-c1nc2ccccc2n1CC(=O)c1ccc(N)cc1.O=C(O)C(=O)O [Example 61]	2 (score 2 relating to strong activity comprising more than 70% of the cells)
N#CCCNc1nonc1-c1nc2ccccc2n1CC(=O)c1ccc(Cl)cc1 [Example 6, 4-[1-(4-Chlorophenacyl)-1H-benzimidazol-2-yl]-furazan-3-yl-N-(2-cyanoethyl)-amine]	2 (score 2 relating to strong activity comprising more than 70% of the cells)

same assay, conditions: HeLa, conc 1 μm

SMILES	Hoechst 33342 nuclear staining score
N#CCCNc1nonc1-c1nc2ccccc2n1CC(=O)c1ccc(N)cc1.O=C(O)C(=O)O [Example 61]	2 (score 2 relating to strong activity comprising more than 70% of the cells)
N#CCCNc1nonc1-c1nc2ccccc2n1CC(=O)c1ccc(Cl)cc1 [Example 6, 4-[1-(4-Chlorophenacyl)-1H-benzimidazol-2-yl]-furazan-3-yl-N-(2-cyanoethyl)-amine]	2 (score 2 relating to strong activity comprising more than 70% of the cells)

same assay, conditions: Jily, conc 0.01 μm

SMILES	Hoechst 33342 nuclear staining score
N#CCCNc1nonc1-c1nc2ccccc2n1CC(=O)c1ccc(N)cc1.O=C(O)C(=O)O [Example 61]	0
N#CCCNc1nonc1-c1nc2ccccc2n1CC(=O)c1ccc(Cl)cc1 [Example 6, 4-[1-(4-Chlorophenacyl)-1H-benzimidazol-2-yl]-furazan-3-yl-N-(2-cyanoethyl)-amine]	2 (score 2 relating to strong activity comprising more than 70% of the cells)

same assay, conditions: Jily, conc 0.1 μm

SMILES	Hoechst 33342 nuclear staining score
N#CCCNc1nonc1-c1nc2ccccc2n1CC(=O)c1ccc(N)cc1.O=C(O)C(=O)O [Example 61]	2 (score 2 relating to strong activity comprising more than 70% of the cells)
N#CCCNc1nonc1-c1nc2ccccc2n1CC(=O)c1ccc(Cl)cc1 [Example 6, 4-[1-(4-Chlorophenacyl)-1H-benzimidazol-2-yl]-furazan-3-yl-N-(2-cyanoethyl)-amine]	2 (score 2 relating to strong activity comprising more than 70% of the cells)

same assay, conditions: Jily, conc 1 μm

SMILES	Hoechst 33342 nuclear staining score
N#CCCNc1nonc1-c1nc2ccccc2n1CC(=O)c1ccc(N)cc1.O=C(O)C(=O)O [Example 61]	2 (score 2 relating to strong activity comprising more than 70% of the cells)
N#CCCNc1nonc1-c1nc2ccccc2n1CC(=O)c1ccc(Cl)cc1 [Example 6, 4-[1-(4-Chlorophenacyl)-1H-benzimidazol-2-yl]-furazan-3-yl-N-(2-cyanoethyl)-amine]	2 (score 2 relating to strong activity comprising more than 70% of the cells)

same assay, conditions: Jurkat, conc 0.01 μm

SMILES	Hoechst 33342 nuclear staining score
N#CCCNc1nonc1-c1nc2ccccc2n1CC(=O)c1ccc(N)cc1.O=C(O)C(=O)O [Example 61]	0
N#CCCNc1nonc1-c1nc2ccccc2n1CC(=O)c1ccc(Cl)cc1 [Example 6, 4-[1-(4-Chlorophenacyl)-1H-benzimidazol-2-yl]-furazan-3-yl-N-(2-cyanoethyl)-amine]	2 (score 2 relating to strong activity comprising more than 70% of the cells)

same assay, conditions: Jurkat, conc 0.1 μm

SMILES	Hoechst 33342 nuclear staining score
N#CCCNc1nonc1-c1nc2ccccc2n1CC(=O)c1ccc(N)cc1.O=C(O)C(=O)O [Example 61]	2 (score 2 relating to strong activity comprising more than 70% of the cells)
N#CCCNc1nonc1-c1nc2ccccc2n1CC(=O)c1ccc(Cl)cc1 [Example 6, 4-[1-(4-Chlorophenacyl)-1H-benzimidazol-2-yl]-furazan-3-yl-N-(2-cyanoethyl)-amine]	2 (score 2 relating to strong activity comprising more than 70% of the cells)

same assay, conditions: Jurkat, conc 1 μm

SMILES	Hoechst 33342 nuclear staining score
N#CCCNc1nonc1-c1nc2ccccc2n1CC(=O)c1ccc(N)cc1.O=C(O)C(=O)O [Example 61]	2 (score 2 relating to strong activity comprising more than 70% of the cells)
N#CCCNc1nonc1-c1nc2ccccc2n1CC(=O)c1ccc(Cl)cc1 [Example 6, 4-[1-(4-Chlorophenacyl)-1H-benzimidazol-2-yl]-furazan-3-yl-N-(2-cyanoethyl)-amine]	2 (score 2 relating to strong activity comprising more than 70% of the cells)

same assay, conditions: MRC5, conc 0.01 μm

SMILES	Hoechst 33342 nuclear staining score
N#CCCNc1nonc1-c1nc2ccccc2n1CC(=O)c1ccc(N)cc1.O=C(O)C(=O)O [Example 61]	0
N#CCCNc1nonc1-c1nc2ccccc2n1CC(=O)c1ccc(Cl)cc1 [Example 6, 4-[1-(4-Chlorophenacyl)-1H-benzimidazol-2-yl]-furazan-3-yl-N-(2-cyanoethyl)-amine]	2 (score 2 relating to strong activity comprising more than 70% of the cells)

same assay, conditions: MRC5, conc 0.1 μm

SMILES	Hoechst 33342 nuclear staining score
N#CCCNc1nonc1-c1nc2ccccc2n1CC(=O)c1ccc(N)cc1.O=C(O)C(=O)O [Example 61]	2 (score 2 relating to strong activity comprising more than 70% of the cells)
N#CCCNc1nonc1-c1nc2ccccc2n1CC(=O)c1ccc(Cl)cc1 [Example 6, 4-[1-(4-Chlorophenacyl)-1H-benzimidazol-2-yl]-furazan-3-yl-N-(2-cyanoethyl)-amine]	2 (score 2 relating to strong activity comprising more than 70% of the cells)

same assay, conditions: MRC5, conc 1 μm

SMILES	Hoechst 33342 nuclear staining score
N#CCCNc1nonc1-c1nc2ccccc2n1CC(=O)c1ccc(N)cc1.O=C(O)C(=O)O [Example 61]	2 (score 2 relating to strong activity comprising more than 70% of the cells)
N#CCCNc1nonc1-c1nc2ccccc2n1CC(=O)c1ccc(Cl)cc1 [Example 6, 4-[1-(4-Chlorophenacyl)-1H-benzimidazol-2-yl]-furazan-3-yl-N-(2-cyanoethyl)-amine]	2 (score 2 relating to strong activity comprising more than 70% of the cells)

same assay, conditions: PBLs, conc 0.01 μm

SMILES	Hoechst 33342 nuclear staining score
N#CCCNc1nonc1-c1nc2ccccc2n1CC(=O)c1ccc(N)cc1.O=C(O)C(=O)O [Example 61]	0
N#CCCNc1nonc1-c1nc2ccccc2n1CC(=O)c1ccc(Cl)cc1 [Example 6, 4-[1-(4-Chlorophenacyl)-1H-benzimidazol-2-yl]-furazan-3-yl-N-(2-cyanoethyl)-amine]	0

same assay, conditions: PBLs, conc 0.1 μm

SMILES	Hoechst 33342 nuclear staining score
N#CCCNc1nonc1-c1nc2ccccc2n1CC(=O)c1ccc(N)cc1.O=C(O)C(=O)O [Example 61]	0
N#CCCNc1nonc1-c1nc2ccccc2n1CC(=O)c1ccc(Cl)cc1 [Example 6, 4-[1-(4-Chlorophenacyl)-1H-benzimidazol-2-yl]-furazan-3-yl-N-(2-cyanoethyl)-amine]	0

same assay, conditions: PBLs, conc 1 μm

SMILES	Hoechst 33342 nuclear staining score
N#CCCNc1nonc1-c1nc2ccccc2n1CC(=O)c1ccc(N)cc1.O=C(O)C(=O)O [Example 61]	0
N#CCCNc1nonc1-c1nc2ccccc2n1CC(=O)c1ccc(Cl)cc1 [Example 6, 4-[1-(4-Chlorophenacyl)-1H-benzimidazol-2-yl]-furazan-3-yl-N-(2-cyanoethyl)-amine]	0

— patent USRE42890E1, “Furazanobenzimidazoles” (Basilea Pharmaceutica AG, priority 2003, dated 2011)
